Assay in all cases: NCI tumour cell line growth inhibition, 48 h
Assay [1] relates to MDA-MB-435.
Assay [2] concerns K-562 leukemia.
Assay [3] relates to UACC-257 melanoma.
Assay [4] has as its system SN12C renal.
In assay [5] the test system is OVCAR-5 ovarian.
Assay [6] deals with SNB-19 CNS.
Assay [7] deals with HT29 colon.
In assay [8] the test system is SF-268 CNS.
In assay [9] the test system is OVCAR-8 ovarian.
Assay [10] deals with MALME-3M melanoma.

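Grown in 96-well plates, cells were treated for 48 hours with each compound at five concentrations. Insufficient inhibition: endpoint recorded as highest concentration tested. GI50 is the concentration that inhibits growth by half. TGI marks complete inhibition of growth.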

In the case of `Cc1ccc2c(Nc3cccc(Cl)c3F)ncc(NC(=O)c3csc4c(N)ncnc34)c2c1`, the GI50 in [1] was 0.326 µM; in [2], 1.5 µM; in assay [3], 0.0715 µM; in [4], greater than 100 µM; in [5], 0.137 µM; in assay [6], greater than 100 µM. For the same compound, the GI50 was 0.0779 µM in [7], greater than 100 µM in assay [8] and greater than 76.8 µM in assay [9]. Moreover, the TGI in [1], in assay [2], in assay [3], in [4], in assay [5] and in assay [6] was greater than 100 µM throughout. For the same compound, the TGI in assay [7], in assay [8] and in assay [9] was greater than 100 µM each time.
In the case of `O=Cc1ccc(Oc2c3ccccc3nc3occc23)cc1`, the GI50 is 6.49 µM in assay [1]; 22.6 µM in assay [2]; 12.2 µM in assay [3]; 7.73 µM in assay [4]; 18.6 µM in assay [5]; 28.8 µM in assay [6]. For the same compound, the figures for the GI50 in [7], in assay [8] and in [9] were 23.1 µM, 15.5 µM and 18.3 µM, respectively. In addition, the TGI in [1] is 24.7 µM; in assay [2] it was greater than 100 µM; in assay [3], 30.1 µM; in [4], 24.2 µM; in assay [5] it was 89.7 µM; in assay [6], greater than 100 µM. In addition, the TGI in assay [7] turned out to be 61.9 µM; in assay [8], 40.8 µM; in [9] it was 66.2 µM.
With `CC[C@H](C)[C@H](NC(=O)Nc1ccccc1)C(=O)N(C)[C@H](C[C@@H](OC(C)=O)c1nc(C(=O)N[C@@H](Cc2ccccc2)C[C@H](C)C(=O)OC)cs1)C(C)C`, the GI50 is 0.416 µM in assay [1]; 98.2 µM in assay [10]; greater than 100 µM in assay [3]; 8.31 µM in assay [4]; 11.9 µM in assay [5]; 5.05 µM in [6]. The GI50 in [7] is 3.33 µM; in [8], 5.13 µM; in assay [9] it was 4.69 µM. The TGI in assay [1] is 1.86 µM; in assay [10] it was greater than 100 µM; in assay [3], greater than 100 µM; in assay [4], greater than 100 µM; in assay [5], greater than 100 µM; in [6], greater than 100 µM. The TGI in [7], in assay [8] and in assay [9] was greater than 100 µM throughout.
In the case of `Cc1ccc(N=Nc2c(N)nn(-c3ccccc3)c2N)cc1`, the GI50 in assay [1] was 0.177 µM; in assay [2], 0.256 µM; in [3], 42.9 µM; in [4], 7.66 µM; in assay [6], 6.23 µM; in [7], 0.353 µM. In addition, the values for the GI50 in assay [8] and in assay [9] were 4.7 µM and 4.27 µM, respectively. The TGI was 0.568 µM in assay [1]; greater than 100 µM in [10]; greater than 100 µM in assay [3]; greater than 100 µM in assay [4]; greater than 100 µM in [6]; greater than 100 µM in [8]. In addition, the TGI in assay [9] is greater than 100 µM.
As for `O=C1c2cc3c(cc2[C@@H]2[C@H]1c1ccc([N+](=O)[O-])cc1C(=O)N2CCCCl)OCO3`, the GI50 in [1] was less than 0.01 µM; in assay [2], 0.857 µM; in [3], less than 0.01 µM; in assay [4], less than 0.01 µM; in [5] it was less than 0.0144 µM; in [6] it was less than 0.0139 µM. For the same compound, the GI50 in assay [7], in assay [8] and in [9] was less than 0.01 µM throughout. Also, the TGI in assay [1] was less than 0.0422 µM; in assay [2] it was greater than 100 µM; in [6], greater than 100 µM; in [7] it was greater than 100 µM; in assay [9] it was greater than 100 µM.
On to `COc1cc([C@@H]2c3cc4c(cc3[C@@H](NCc3ccccc3)C3COC(=O)[C@@H]32)OCO4)cc(OC)c1O` (some centres not stated), for which the TGI was greater than 79.1 µM in assay [2]; 32.7 µM in [10]; greater than 90.2 µM in [3]; 18.8 µM in assay [4]; greater than 66.6 µM in [5]; 42 µM in assay [6]. The TGI in [7] turned out to be 60.1 µM; in assay [8], 61.5 µM; in assay [9] it was 51.7 µM.
On to `CCOC(=O)C(Cc1ccccc1)NC(=O)OC(C)(C)C` (configuration not stated), for which the TGI in [2], in [10], in assay [3], in [4], in assay [5] and in assay [6] was greater than 100 µM throughout. The TGI in assay [7], in [8] and in [9] was greater than 100 µM each time.
As for `CCOC(=O)N1N=NC2C3OC(C[C@@]3(C#N)OC(C)=O)[C@H]21` (some centres not stated), the TGI in [2], in assay [10], in assay [3], in [4], in assay [5] and in assay [6] was greater than 100 µM throughout. Besides, the TGI in [7], in assay [8] and in assay [9] was greater than 100 µM throughout.
Regarding `Cc1ccc(C2(O)CC(c3ccc([N+](=O)[O-])o3)=NN2C(=O)COc2ccccc2Cl)cc1` (configuration not stated), the TGI is greater than 100 µM in assay [2]; 40.3 µM in [10]; 53.6 µM in assay [3]; greater than 49.1 µM in [4]; greater than 91.8 µM in assay [5]; greater than 100 µM in assay [6]. The TGI in assay [7] was greater than 42 µM; in assay [8], greater than 76 µM; in assay [9] it was greater than 100 µM.
As to `NCCCC1NC(=O)/C(=C(O)/C=C/C2CCC[C@@H]2CC2SCCS2)C1=O` (some centres not stated), the TGI in [2], in assay [10], in [3], in [4], in [5] and in assay [6] was greater than 100 µM each time. The TGI in assay [7], in assay [8] and in assay [9] was greater than 100 µM each time.
In the case of `O=C1[C@@H]2C3SC(c4ccccc43)[C@@H]2C(=O)N1c1ccccc1`, the TGI in assay [2], in [10], in assay [3], in assay [4], in assay [5] and in assay [6] was greater than 100 µM throughout. Further, the TGI in [7], in assay [8] and in [9] was greater than 100 µM in each case.

The values are drawn from PubChem BioAssay (NCI).
